How the values were obtained:
S. Typhimurium ATCC14028 = assay: Bioscreen assay: influence on planktonic growth curve; type: cell-based, Salmonella Typhimurium; set-up: key: x: no influence on the planktonic growth at the IC50 for biofilm inhibition; ∘: planktonic growth is retarded at the IC50 for biofilm inhibition; details: planktonic growth at the IC50 for biofilm inhibition, 25° C.
Description: Some of the tested compounds show a concentration range in which biofilm formation is inhibited but no effect on planktonic growth is observed. These compounds are particularly interesting for prevention of biofilm formation since the development of resistance against these compounds is less likely. Table 8 indicates whether the different compounds have an effect on the planktonic growth of the bacteria at the IC50 for biofilm inhibition. To construct Table 8, the effect of the tested compounds on the growth curve of the bacteria was determined at a concentration equal to the IC50 for biofilm inhibition, by using the Bioscreen system available from Oy Growth Curves Ab Ltd). The Bioscreen device from Oy Growth Curves Ab Ltd was used for measuring the influence of the chemical compounds on the planktonic growth of Salmonella Typhimurium and Pseudomonas aeruginosa. The Bioscreen is a computer controlled incubator/reader/shaker that uses 10×10 well microtiter plates and measures light absorbance of each well at a specified wave length in function of time. An overnight culture of S. […] The broth used was TSB 1/20 for the experiments at 16° C. and 25° C. For experiments at 37° C. CFA medium was used for S. […] As a control 3 μl of the appropriate solvent (DMSO or EtOH) was also added to the plate in 3- or 4-fold. The microtiter plate was incubated in the Bioscreen device at 16° C., 25° C. or 37° C. for at least 36 hours, with continious medium shaking. The absorbance of each well was measured at 600 nm each 15 minutes. Excel was used to generate the growth curves for treated the treated wells and the untreated control wells. Some of the compounds show a concentration range in which biofilm formation is inhibited but no effect on the planktonic growth is observed. Table 14 indicates if the different compounds have an effect on the planktonic growth of the bacteria at the IC50 for biofilm inhibition. To construct this table the effect of the compounds on the growth curve of the bacteria was determined at a concentration equal to the IC50 for biofilm inhibtion, by using the Bioscreen system from Oy Growth Curves Ab Ltd.

[1] = test system: Salmonella Typhimurium ATCC 14028; assay: Antibacterial activity: growth inhibition, OD600 after 24 h (GIC50); type: cell-based; details: 25° C.
Protocol: Evaluation of antibacterial-inhibitory activity of some substituted 2-amino-1H-imidazoles of the invention was carried out by diluting an overnight culture of Salmonella Typhimurium ATCC 14028 into a liquid medium. 200 μl of the diluted overnight culture was added to each well of a microtiter plate together with different concentrations of the test compound (1/2 dilution series of the compound). After an incubation of 24 hours the optical density at 600 nm of each well was determined with a microtiter plate reader.
Starting from a 40 mM stock solution of each compound in DMSO, two-fold serial dilutions in 100 μl liquid broth per well were prepared in dublicate in sterile transparant microtiter plates. The broth used was TSB 1/20 for measurements at 25° C. and CFA (in case of Salmonella Typhimurium) and LBNS (in case of Pseudomonas aeruginosa) for measurements at 37° C. Subsequently an overnight culture of the bacteria (S. Typhimurium ATCC14028 or P. aeruginosa PA14) was diluted 1/200 into the corresponding liquid broth and 100 μl was added to each well of the microtiterplate resulting in a total amout of 200 μl medium per well. After an incubation of 24 hours the optical density at 600 nm of each well was determined with a microtiter plate reader (VERSAmax, Molecular Devices).
Evaluation of antibacterial-inhibitory activity of some substituted imidazo[1,2-a]pyrimidinium bromide salts of the invention was carried out by diluting an overnight culture of Salmonella Typhimurium ATCC14028 or Pseudomonas aeruginosa PA141/200 into liquid medium. 200 μl of the diluted overnight culture was added to each well of a microtiterplate together with different concentrations of the test compound (1/2 dilution series of the compound). After an incubation of 24 hours the optical density at 600 nm of each well was determined with a microtiter plate reader.

SMILES	Influence on growth (S. Typhimurium ATCC14028)	IC50 [1] [µM]	IC50 ([1]; listed as R1=Benzyl, R3=4-I—Ph, R4=H) [µM]	IC50 ([1]; listed as R1=benzyl, R3=4-I—ph, R4=H) [µM]	IC50 ([1]; Salmonella enterica) [µM]
CCCCCCN1c2nccc[n+]2CC1(O)c1ccc([N+](=O)[O-])cc1.[Br-] (stereo not shown) [Compound 34]	x	100 to 200	–	–	–
OC1(c2ccc(Cl)cc2)C[n+]2cccnc2N1C1CCCCC1.[Br-] (stereo not shown) [Compound 64]	x	50 to 100	–	–	–
O=[N+]([O-])c1ccc(C2(O)C[n+]3cccnc3N2C2CCCCCCCCCCC2)cc1.[Br-] (stereo not shown) [Compound 69]	–	< 6	–	–	–
OC1(c2ccc(I)cc2)C[n+]2cccnc2N1Cc1ccccc1.[Br-] (stereo not shown) [Compound 73]	x	–	50	50 to 100	–
OC1(c2ccc(-c3ccccc3)cc2)C[n+]2cccnc2N1C1CCCC1.[Br-] (stereo not shown) [R1=Cyclopentyl, R3=4-biphenylyl, R4=H, 1-cyclopentyl-2-hydroxy-2-(4-biphenylyl)-2,3-dihydro-1H-imidazo[1,2-a]pyrimidin-4-ium bromide]	x	–	–	–	25 to 50

Source: patent US20130029981A1, “COMPOUNDS, COMPOSITIONS, AND METHODS FOR CONTROLLING BIOFILMS” (Katholieke Universiteit Leuven, priority 2009, published 2013)
